From patent US6713475B2, “Tricyclic benzodiazepines as vasopressin receptor antagonists” (Ortho-McNeil Pharmaceutical, Inc., priority 1999, dated 2004) come the findings set out here.

Where “and” joins values, the source holds several entries; their conditions need not be identical. Equal entries are not always repeated.

For one assay, the target named is V2 (Homo sapiens, UniProt P30518). Put plainly: In vitro recombinant vasopressin receptor binding assay (V2 Bdg), displacement of 3H-arginine vasopressin. Also on record: expressed in transfected cells; host or cells: HEK-293. The following applies: 0.1 uM; printed in parentheses in place of IC50. On the procedure:
In vitro Recombinant Vasopressin Receptor Binding Assay
Compounds were assessed for their ability to displace ^3H-arginine vasopressin from the human V-1 or V-2 receptor in HEK-293 cells. […] Into wells of 96-well round bottom polypropylene plates were added buffer, test compound, membrane (containing cloned human V-1 or V-2 receptor), and ^3H-vasopressin. The reaction plates were allowed to sit at room temperature for one hour. The samples were filtered through Unifilter GF/C plates (presoaked in 0.3 polyethyleneimine). The plates were washed 5 times with cold physiological saline containing 0.05% Tween 20. After drying, the bottom of the filter plates were sealed and 0.025 ml of Microscint-20 was added to each filter. The top of the plate was sealed, and the plate was counted.
In the case of `CN1CCN2Cc3ccccc3N(C(=O)c3ccc(NC(=O)c4ccccc4F)cc3Cl)CC2C1` (racemic) [Compound 64, (RS)-2-Fluoro-N-[3-chloro-4-(1,3,4,12a-tetrahydro-2-methyl-6H-[1,4]pyrazino[4,3-a][1,4]-benzodiazepin-11(12H)-yl-carbonyl)phenyl]benzamide], the “V2 Bdg % inh” value was 0% and 5%.

Regarding `Cc1cccc(C(=O)Nc2ccc(C(=O)N3CC4CN(C)CCN4Cc4ccccc43)c(Cl)c2)c1C` (racemic) [Compound 62, (RS)-2,3-Dimethyl-N-[3-chloro-4-(1,3,4,12a-tetrahydro-2-methyl-6H-[1,4]pyrazino[4,3-a][1,4]-benzodiazepin-11(12H)-yl-carbonyl)phenyl]benzamide], the “V2 Bdg % inh” value is 28% and 48%.

As for “(RS)-2-(3-Thienyl)-N-[4-(1,3,4,12a-tetrahydro-6H-[1,4]thiazino[4,3-a][1,4]-benzodiazepin-11(12H)-yl-carbonyl)phenyl]benzamide [Compound 49]”, the “V2 Bdg % inh” value is “(59%/0.1 uM)”.

In the case of `Cc1ccc(-c2ccccc2C(=O)Nc2ccc(C(=O)N3CC4CN(C)CCN4Cc4ccccc43)cc2C)cc1` (racemic) [Compound 79, (RS)-2-(4-Methyl-phenyl)-N-[2-methyl-4-(1,3,4,12a-tetrahydro-2-methyl-6H-(1,4]pyrazino[4,3-a][1,4]-benzodiazepin-11(12H)-yl-carbonyl)phenyl]benzamide], the “V2 Bdg % inh” value is reported as “(33%/0.1 uM)”.

In the case of `O=C(Nc1ccc(C(=O)N2CC3CSCCN3Cc3ccccc32)c(F)c1)c1ccccc1-c1ccsc1` (racemic) [Compound 51, (RS)-2-(3-Thienyl)-N-[3-fluoro-4-(1,3,4,12a-tetrahydro-6H-[1,4]thiazino[4,3-a][1,4]-benzodiazepin-11(12H)-yl-carbonyl)phenyl]benzamide], the “V2 Bdg % inh” value is listed as “(62%/0.1 uM)”.

As to `O=C(Nc1ccc(C(=O)N2CC3CNCCN3Cc3ccccc32)cc1)c1ccccc1-c1ccccc1` (racemic) [Compound 58, (RS)-2-Phenyl-N-[4-(1,3,4,12a-tetrahydro-6H-[1,4]pyrazino[4,3-a][1,4]-benzodiazepin-11(12H)-yl-carbonyl)phenyl]benzamide], the “V2 Bdg % inh” value is on record as “(33%/0.1 uM)”.

As for “(RS)-2-Methyl-5-fluoro-N-[3-chloro-4-(1,3,4,12a-tetrahydro-2-methyl-6H-[1,4]pyrazino[4,3-a][1,4]-benzodiazepin-11(12H)-yl-carbonyl)phenyl]benzamide [Compound 94]”, the “V2 Bdg % inh” value is “(39%/0.1 uM)”.

For the compound `Cc1ccc(-c2ccccc2C(=O)Nc2ccc(C(=O)N3CC4CN(C)CCN4Cc4ccccc43)c(Cl)c2)cc1` (racemic) [Compound 66, (RS)-2-(4-Methyl-phenyl)-N-[3-chloro-4-(1,3,4,12a-tetrahydro-2-methyl-6H-[1,4]pyrazino[4,3-a][1,4]-benzodiazepin-11(12H)-yl-carbonyl)phenyl]benzamide], the “V2 Bdg % inh” value was “(82%/0.1 uM)”.

As to `O=C(Nc1ccc(C(=O)N2CC3CN(Cc4ccccc4)CCN3Cc3ccccc32)cc1)c1ccccc1-c1ccccc1` (racemic) [Compound 57, (RS)-2-Phenyl-N-[4-(1,3,4,12a-tetrahydro-2-benzyl-6H-[1,4]pyrazino[4,3-a][1,4]-benzodiazepin-11(12H)-yl-carbonyl)phenyl]benzamide], the “V2 Bdg % inh” value is “(25%/0.1 uM)”.

Turning to `CN1CCN2Cc3ccccc3N(C(=O)c3ccc(NC(=O)c4cccc(Cl)c4F)cc3Cl)CC2C1` (racemic) [Compound 65, (RS)-2-Fluoro-3-chloro-N-[3-chloro-4-(1,3,4,12a-tetrahydro-2-methyl-6H-[1,4]pyrazino[4,3-a][1,4]-benzodiazepin-11(12H)-yl-carbonyl)phenyl]benzamide], the “V2 Bdg % inh” value was “(17%/0.1 uM)”.

Take `O=C(Nc1ccc(C(=O)N2CC3CSCCN3Cc3ccccc32)cc1)c1ccccc1-c1cccs1` (racemic) [Compound 52, (RS)-2-(2-Thienyl)-N-[4-(1,3,4,12a-tetrahydro-6H-[1,4]thiazino[4,3-a][1,4]-benzodiazepin-11(12H)-yl-carbonyl)phenyl]benzamide]: the “V2 Bdg % inh” value is recorded as “(36%/0.1 uM)”.

Regarding `Cc1ccccc1C(=O)Nc1ccc(C(=O)N2CC3CN(C)CCN3Cc3ccccc32)c(C(F)(F)F)c1` (racemic) [Compound 74, (RS)-2-M ethyl-N-[3-trifluoromethyl-4-(1,3,4,12a-tetrahydro-2-methyl-6H-[1,4]pyrazino[4,3-a][1,4]-benzodiazepin-11(12H)-yl-carbonyl)phenyl]benzamide], the “V2 Bdg % inh” value is listed as “(4%/0.1 uM)”.

Consider `CN1CCN2Cc3ccccc3N(C(=O)c3ccc(NC(=O)c4ccccc4-c4ccccc4)cc3C(F)(F)F)CC2C1` (racemic) [Compound 75, (RS)-2-Phenyl-N-[3-trifluoromethyl-4-(1,3,4,12a-tetrahydro-2-methyl-6H-[1,4]pyrazino[4,3-a][1,4]-benzodiazepin-11(12H)-yl-carbonyl)phenyl]benzamide], for which the “V2 Bdg % inh” value was “(2%/0.1 uM)”.

Still in this assay, the particulars now being: membrane with cloned human V-2 receptor (HEK-293).
One may read the IC50 as the point on the concentration scale where inhibition reaches its midpoint. As to `O=C(Nc1ccc(C(=O)N2CC3CSCCN3Cc3ccccc32)c(O)c1)c1ccccc1-c1ccccc1` (racemic) [Compound 109, (RS)-2-Phenyl-N-[3-hydroxy-4-(1,3,4,12a-tetrahydro-6H-[1,4]thiazino[4,3-a][1,4]-benzodiazepin-11(12H)-yl-carbonyl)phenyl]benzamide], the IC50 amounted to 7 nM.

As to `Cc1csc(-c2ccccc2C(=O)Nc2ccc(C(=O)N3CC4CSCCN4Cc4ccccc43)cc2)c1` (racemic) [Compound 53, (RS)-2-(4-Methyl-2-thienyl)-N-[4-(1,3,4,12a-tetrahydro-6H-[1,4]thiazino[4,3-a][1,4]-benzodiazepin-11(12H)-yl-carbonyl)phenyl]benzamide], the IC50 is 15 nM.

With `CN1CCN2Cc3ccccc3N(C(=O)c3ccc(NC(=O)c4ccccc4-c4ccccc4)cc3Cl)CC2C1` (racemic) [Compound 56, (RS)-2-Phenyl-N-[3-chloro-4-(1,3,4,12a-tetrahydro-2-methyl-6H-[1,4]pyrazino[4,3-a][1,4]-benzodiazepin-11(12H)-yl-carbonyl)phenyl]benzamide], the IC50 was 35 nM and 54 nM.

In the case of `O=C(Nc1ccc(C(=O)N2C[C@@H]3COCCN3Cc3ccccc32)c(Cl)c1)c1ccccc1-c1ccccc1` [Compound 13, (R)-2-Phenyl-N-[3-chloro-4-(1,3,4,12a-tetrahydro-6H-[1,4]oxazino[4,3-a][1,4]-benzodiazepin-11(12H)-yl-carbonyl)phenyl]benzamide], the IC50 was 32 nM.

Consider `O=C(Nc1ccc(C(=O)N2CC3COCCN3Cc3ccccc32)c(Cl)c1)c1ccc(F)cc1-c1ccccc1` (racemic) [Compound 114, (RS)-2-Phenyl-4-fluoro-N-[3-chloro-4-(1,3,4,12a-tetrahydro-6H-[1,4]oxazino[4,3-a][1,4]-benzodiazepin-11(12H)-yl-carbonyl)phenyl]benzamide], for which the IC50 stood at 4 nM.

As for `O=C(Nc1ccc(C(=O)N2CC3COCCN3Cc3ccccc32)c(Cl)c1)c1cc(F)ccc1-c1ccccc1` (racemic) [Compound 111, (RS)-2-Phenyl-5-fluoro-N-[3-chloro-4-(1,3,4,12a-tetrahydro-6H-[1,4]oxazino[4,3-a][1,4]-benzodiazepin-11(12H)-yl-carbonyl)phenyl]benzamide], the IC50 amounted to 23 nM.

In the case of `O=C(Nc1ccc(C(=O)N2CC3CSCCN3Cc3ccccc32)c(Cl)c1)c1ccc(F)cc1-c1ccccc1` (racemic) [Compound 105, (RS)-2-Phenyl-4-fluoro-N-[3-chloro-4-(1,3,4,12a-tetrahydro-6H-[1,4]thiazino[4,3-a][1,4]-benzodiazepin-11(12H)-yl-carbonyl)phenyl]benzamide], the IC50 amounted to 8 nM.

Turning to `COc1cc(NC(=O)c2ccccc2-c2ccccc2)ccc1C(=O)N1CC2CSCCN2Cc2ccccc21` (racemic) [Compound 108, (RS)-2-Phenyl-N-[3-methoxy-4-(1,3,4,12a-tetrahydro-6H-[1,4]thiazino[4,3-a][1,4]-benzodiazepin-11(12H)-yl-carbonyl)phenyl)benzamide], the half-inhibitory concentration (IC50) is 32 nM.

`Cc1cc(NC(=O)c2ccccc2-c2ccccc2)ccc1C(=O)N1CC2CSCCN2Cc2ccccc21` (racemic) [Compound 107, (RS)-2-Phenyl-N-[3-methyl-4-(1,3,4,12a-tetrahydro-6H-[1,4]thiazino[4,3-a][1,4]-benzodiazepin-11(12H)-yl-carbonyl)phenyl]benzamide]: the IC50 is 21 nM.

Turning to `O=C(Nc1ccc(C(=O)N2C[C@H]3CSCCN3Cc3ccccc32)c(Cl)c1)c1ccccc1-c1ccccc1` [Compound 47, (S)-2-Phenyl-N-[3-chloro-4-(1,3,4,12a-tetrahydro-6H-[1,4]thiazino[4,3-a][1,4]-benzodiazepin-11(12H)-yl-carbonyl)phenyl]benzamide], the IC50 worked out at 11 nM.

The same assay, now with this note: read-out: V2 Bdg % inh.
As for `Cc1csc(-c2ccccc2C(=O)Nc2ccc(C(=O)N3CC4COCCN4Cc4ccccc43)cc2)c1` (racemic) [Compound 54, (RS)-2-(4-Methyl-2-thienyl)-N-[4-(1,3,4,12a-tetrahydro-6H-[1,4]oxazino[4,3-a][1,4]-benzodiazepin-11(12H)-yl-carbonyl)phenyl]benzamide], the inhibition at 0.1 µM worked out at 57%.

As to `CN1CCN2Cc3ccccc3N(C(=O)c3ccc(NC(=O)c4ccccc4-c4ccccc4)cc3Cl)CC2C1` (racemic) [Compound 56, (RS)-2-Phenyl-N-[3-chloro-4-(1,3,4,12a-tetrahydro-2-methyl-6H-[1,4]pyrazino[4,3-a][1,4]-benzodiazepin-11(12H)-yl-carbonyl)phenyl]benzamide], the inhibition at 0.1 µM came to 71%.

With `Cc1cccc2c1N(C(=O)c1ccc(NC(=O)c3ccccc3-c3ccccc3)cc1)CC1CSCCN1C2` (racemic) [Compound 39, (RS)-2-Phenyl-N-[4-(10-methyl-1,3,4,12a-tetrahydro-6H-[1,4]thiazino[4,3-a][1,4]-benzodiazepin-11(12H)-yl-carbonyl)phenyl]benzamide], the inhibition at 0.1 µM came out at 37%.
